The record followed here is patent US6340678B1, “4,4-difluoro-2,3,4,5-tetrahydro-1H-1-benzoazepine derivatives and drug compositions containing them” (Yamanouchi Pharmaceutical Co., Ltd., priority 1997, dated 2002).

SMILES strings stand for the structures. Positions of bridges follow the written chain, without caps; N, C: chain ends. Non-standard residues stand in square brackets, D forms with d. Residues, ends and D or L forms follow the SMILES beside them. Orn = NCCC[C@H](N)C(=O)O; Mpa = O=C(O)CCS

The test addresses T1, oxytocin receptor (Rattus norvegicus, UniProt P70536).
T1 construct: uterus was excised, and a membrane sample was prepared therefrom; from tissue; host or cells: rat uterus (membrane preparation after diethylstilbestrol dipropionate treatment)
T1 sequence (P70536 1-388): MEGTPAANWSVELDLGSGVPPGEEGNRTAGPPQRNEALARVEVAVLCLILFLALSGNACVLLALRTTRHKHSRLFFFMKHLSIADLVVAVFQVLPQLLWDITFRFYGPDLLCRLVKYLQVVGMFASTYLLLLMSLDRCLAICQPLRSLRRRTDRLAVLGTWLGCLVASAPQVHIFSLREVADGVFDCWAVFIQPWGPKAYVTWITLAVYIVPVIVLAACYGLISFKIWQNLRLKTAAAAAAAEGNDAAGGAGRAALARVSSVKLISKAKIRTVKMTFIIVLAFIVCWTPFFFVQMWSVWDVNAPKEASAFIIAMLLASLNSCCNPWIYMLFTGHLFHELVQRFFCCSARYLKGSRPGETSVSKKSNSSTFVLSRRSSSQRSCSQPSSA
As to the kind of experiment: Oxytocin receptor binding assay ([3H]-oxytocin, rat uterine membrane sample). As to the method:
(Oxytocin Receptor Binding Assay)
Preparation of Uterine membrane was prepared by a method of Soroff, et al. (J. Biol. Chem., 249: 1376, 1974) while a binding assay was performed by a method of Pettibone, et al. (Endocrinology, 125: 217, 1989). Diethylstilbestrol dipropionate (0.3 mg/kg) was administered to a rat intraperitoneally, and after 18 to 24 hours, uterus was excised, and a membrane sample was prepared therefrom. [^3H]-Oxytocin (0.5 nM; specific activity=30 to 60 Ci/mmol), 50 μg of the membrane sample and a test drug (10^−8 to 10^−5 M) were incubated at room temperature for 60 minutes in 250 μl (total volume) of 50 mM Tris hydrochloride buffer (pH 7.4) containing 10 mM of magnesium chloride and 0.1% of bovine serum albumin (BSA). […] The glass filter was taken out, well dried and mixed with a cocktail for liquid scintillation, the amount of [^3H]-oxytocin bound to the sample was determined by a liquid scintillation counter, and the inhibition rate was calculated from the following equation: […]
wherein [L] is a concentration of the radioactive ligand; and Kd is a dissociation constant calculated from the scattered plots.
Then, a negative logarithmic value of Ki calculated hereinabove was taken as pKi. […]

The Ki is the dissociation constant of the complex between target and ligand, obtained from inhibition or displacement. Read a high Ki as lower affinity. `CCOc1ccc(C[C@H]2NC(=O)CCSSC[C@@H](C(=O)N3CCC[C@H]3C(=O)N[C@@H](CCCN)C(=O)NCC(N)=O)NC(=O)[C@H](CC(N)=O)NC(=O)[C@H]([C@@H](C)O)NC(=O)[C@H]([C@@H](C)CC)NC2=O)cc1` [atosiban] ([Mpa][dY](Et)ITNCP[Orn]G-NH2; disulfide 1-6) had a Ki of 11.7 nM.
